Reference: patent US20230392153A1, “SUMO Targeting Morpholinos as both Enhancers of Anti-Cancer Effects of Chemotherapeutic Treatments and Preventative Agents Against the Establishment of Chemoresistance” (Board of Regents, The University of Texas System, priority 2022, published 2023)
{OctaGua} = octa-guanidine dendrimer (vivo-morpholino)

Tested on: mature mRNA transcripts derived from the SUMO2 gene, S2V1 and S2V2
Test: qRT-PCR quantification of SUMO2 transcript variants (CNE100 ng) in A549 cells treated with vivo-morpholinos
Type: cell-based, human
Details: 4 μM, 24 hours
Procedure: Made to order vivo-morpholinos are readily available and can be procured from Gene Tools, LLC (Philomath, OR) based on specified embodiments of this disclosure, and reconstituted at a final concentration of 400 μM using RNase & DNase-free milli-Q water. The reconstituted vivo-morpholinos were kept in solution at room temperature. To test the vivo-morpholinos, A549 cells were seeded in 6 well plates at a density of 0.5×10^6 cells per well in a final volume of 3 mL per well. The day after cell seeding, the vivo-morpholinos were diluted down to a final concentration of 4 μM and a final volume of 2 mL using 1× Opti-MEM™ I (Thermo Fisher Scientific, Waltham, MA), the plating media was discarded using vacuum suction, and the diluted vivo-morpholinos were immediately added to the cells (2 mL per well). The cells were maintained in the presence of the vivo-morpholinos at 37° C. and 5% CO 2 for another 24 hours and subsequently the cells were collected and processed for RNA isolation. […] RNA quantification was performed using a NanoDrop™ One s Microvolume UV-Vis Spectrophotometer (Thermo Fisher Scientific). Upon quantification, the purified RNA was divided into 9 μL aliquots and stored at −80° C. until used for qRT-PCR. […]
CNE100 ng were calculated using the Cq values obtained in the qRT-PCR reactions indicated above and calibration curves generated using purified RNA produced in vitro corresponding to each of the segments targeted by the primer sets indicated above.
The primer sets used to quantify each of the SUMO2 mature mRNA transcripts are indicated below. […]
The experiments described above were performed four different times. […] In the three subsequent independent experiments, all samples were analyzed in triplicate and the averages were calculated. […]
Referring to FIG. 5, quantitative analysis of the SUMO2 transcript variants present in A549 cells under normal conditions as well as upon a 24 hour treatment with the vivo-morpholinos S2E3Acc and S2E3Don is presented. […]

Row | Substance | effect on the proportion of S2V1:S2V2 present in the cell | decrease in the CNE100 ng of S2V1 (versus normal conditions (untreated))
1 | S2E3Acc: Vivo-morpholino, SEQ ID NO: 3, 5′ CCTCATTGACAATCCCTGAACGAGA 3′; targets SUMO2 exon 3 at the splicing acceptor site (CCUCAUUGACAAUCCCUGAACGAGA; all phosphorodiamidate morpholino (PMO), 3' {OctaGua}, T or U not given here) | significative changes | ~10 fold
2 | S2E3Don: Vivo-morpholino, SEQ ID NO: 4, 5′ GAGATTTTTTTACCTGTGCAGGTGT 3′; targets SUMO2 exon 3 at the splicing donor site (antisense GAGAUUUUUUUACCUGUGCAGGUGU; all phosphorodiamidate morpholino (PMO), 3' {OctaGua}, T or U not given here) | significative changes | 
